Laboratory results: ChEMBL document CHEMBL4665806, “Structure-based optimisation of orally active & reversible MetAP-2 inhibitors maintaining a tight 'molecular budget'” (Bioorg Med Chem Lett, 2020)
Converted amounts (≈) assume the structure as drawn. The source made the active and inactive calls. No cut-off for these calls is given here.

Columns and labels:
[1] = Intrinsic clearance in rat; type: ADME
[2] = Intrinsic clearance in human; type: ADME
[3] = Chromatographic hydrophobicity index, log D of the compound at pH 7.4; type: physicochemical; settings: buffer
Mus musculus [4] = experiment: Antiinflammatory activity in anti-KLH treated mouse model of B-cell adaptive immunity assessed as inhibition of secondary response at […] mg/kg, po administered twice daily from day 21 to day 31 relative to control; type: functional, organism-based; settings: dose 3.0 mg/kg, time 10.0 day
Mus musculus [5] = experiment: Antiinflammatory activity in antigen KLH-TNP- treated mouse model of B-cell adaptive immunity assessed as inhibition of secondary response at 3 mg/kg, po administered twice daily from day 21 to day 31 relative to control; type: functional; design: scale not given: the % may be the effect or the level left; settings: time 10 day
Mus musculus [6] = experiment: Antiinflammatory activity in antigen KLH-TNP- treated mouse model of B-cell adaptive immunity assessed as inhibition of secondary response at 10 mg/kg, po administered twice daily from day 21 to day 31 relative to control; type: functional; design: scale not given: the % may be the effect or the level left; settings: time 10 day
Mus musculus [7] = experiment: Antiinflammatory activity in antigen KLH-TNP- treated mouse model of B-cell adaptive immunity assessed as inhibition of secondary response at 30 mg/kg, po administered twice daily from day 21 to day 31 relative to control; type: functional; design: scale not given: the % may be the effect or the level left; settings: dose 3 mg/kg; time 10 day
Mus musculus [8] = experiment: Antiinflammatory activity in antigen KLH-TNP- treated po dosed mouse model of B-cell adaptive immunity assessed as inhibition of secondary response administered twice daily from day 21 to day 31; type: functional, organism-based; settings: dose mg/kg 3-30, time 10.0 day
[9] = Oral bioavailability in mouse at 10 mg/kg; type: ADME, organism-based; settings: in vivo
[10] = Volume of distribution at steady state in po dosed mouse; type: ADME, organism-based; settings: in vivo
[11] = Half life in po dosed mouse; type: ADME, organism-based; settings: in vivo
[12] = Clearance in po dosed mouse; type: ADME, organism-based; settings: in vivo
[13] = Solubility of the compound; type: physicochemical
[14] = target: Methionine aminopeptidase 2 (Mus musculus, UniProt O08663); experiment: Inhibition of MetAP2 in mouse B cells assessed as reduction in IgG secretion; type: cell-based, B-cell
Chain of Methionine aminopeptidase 2 (O08663 whole entry): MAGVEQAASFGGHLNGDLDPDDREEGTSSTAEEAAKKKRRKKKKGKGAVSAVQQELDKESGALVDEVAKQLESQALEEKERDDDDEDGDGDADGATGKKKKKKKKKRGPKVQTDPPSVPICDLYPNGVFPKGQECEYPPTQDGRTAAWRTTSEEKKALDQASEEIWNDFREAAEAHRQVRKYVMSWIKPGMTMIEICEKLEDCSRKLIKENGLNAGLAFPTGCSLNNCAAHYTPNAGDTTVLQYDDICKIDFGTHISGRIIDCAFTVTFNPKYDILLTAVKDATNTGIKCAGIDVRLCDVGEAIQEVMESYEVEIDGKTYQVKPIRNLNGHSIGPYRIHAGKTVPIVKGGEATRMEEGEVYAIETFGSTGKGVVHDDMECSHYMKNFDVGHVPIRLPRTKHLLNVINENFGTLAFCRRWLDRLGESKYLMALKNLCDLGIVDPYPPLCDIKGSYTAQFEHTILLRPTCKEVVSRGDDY

CC(C)Oc1cc(N2CCNCC2)ccc1-c1c(C(N)=O)[nH]c2cc(F)c(Cl)cc12
CLint scaled [1]: < 1 mL/min/kg | CLint scaled [2]: < 1 mL/min/kg | chromatographic logD [3]: 3.1

CC(C)Oc1cc(N2CCNCC2)ccc1-c1c(C(N)=O)[nH]c2cc(F)c(F)cc12
Activity (Mus musculus [4]): Active | Activity (Mus musculus [5]): 15% | Activity (Mus musculus [6]): 39% | Activity (Mus musculus [7]): 89% | Activity (Mus musculus [8]): Dose-dependent effect | bioavailability [9]: 89% | Vdss [10]: 7.7 L/kg | half-life [11]: 4.5 h | CL/F [12]: 45 mL/min/kg | CLint scaled [1]: < 1 mL/min/kg | CLint scaled [2]: < 1 mL/min/kg | chromatographic logD [3]: 2.8 | solubility [13]: 629 µg/mL (≈ 1520 µM) | IC50 [14]: 39.8 nM
